In patent publication US20240058265A1, “TREATMENT OF OCULAR DISEASES USING ENDOTHELIN RECEPTOR ANTAGONISTS” (Perfuse Therapeutics, Inc., priority 2021, published 2024):
Values joined by “and” are separate entries in the source; they are usually repeats but may differ in a detail not shown here. Equal entries are not always repeated. Where two headings read alike, the source gives them in different places.

Tests used:
ETA receptor = target: T1, ETA receptor (Homo sapiens, UniProt P25101); test: Functional potency for ETA receptor; assay type: biochemical
T1 sequence (P25101 21-427): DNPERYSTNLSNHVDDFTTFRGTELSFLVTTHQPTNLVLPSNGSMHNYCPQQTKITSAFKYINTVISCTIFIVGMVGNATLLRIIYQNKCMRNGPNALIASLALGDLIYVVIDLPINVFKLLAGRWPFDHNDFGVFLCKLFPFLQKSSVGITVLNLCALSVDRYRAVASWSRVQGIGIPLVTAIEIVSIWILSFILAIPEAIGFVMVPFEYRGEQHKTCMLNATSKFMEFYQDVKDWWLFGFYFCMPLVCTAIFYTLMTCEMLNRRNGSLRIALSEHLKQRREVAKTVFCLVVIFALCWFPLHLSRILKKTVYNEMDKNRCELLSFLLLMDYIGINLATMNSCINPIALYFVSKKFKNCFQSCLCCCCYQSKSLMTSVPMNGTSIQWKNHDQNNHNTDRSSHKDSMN
Excerpt: (§1) In the above table, the physicochemical data, e.g., solubility, were obtained following standard protocols known in the field (see, e.g., Reis et al., Mini Rev Med Chem., 2010, 10(11):1071-6; Avdeef et al., Expert Opin Drug Metab Toxicol., 2005, 1(2):325-42; Bharate et al., Comb Chem High Throughput Screen., 2016, 19(6):461-9; and Jain et al., J Pharm Biomed Anal., 2013, 86:11-35.); and the biochemical data, i.e., potency for ETA/ETB, were obtained following the protocols known in the field (see, e.g., Kirkby et al., Br J Pharmacol., 2008, 153(6):1105-19; and Maguire et al., Br J Pharmacol., 2014, 171(24):5555-72.).

[1] = Solubility (pH 2, pH 7, ethyl acetate); assay type: physicochemical
Excerpt: as §1

[2] = system: laser-induced glaucoma eye; test: Laser-induced glaucoma non-human primate, intraocular pressure after topical administration; assay type: in vivo, rhesus macaque, Macaca Mulatta; conditions: 50 μL eyedrop 2 mg/mL
Procedure: Non-human primates (rhesus macaque, Macaca Mulatta) were obtained for this study. One eye of each animal underwent induction of elevation of intraocular pressure (TOP) by repeated laser photocoagulation of the trabecular meshwork. Imaging sessions were repeated to monitor the optic nerve head (ONH) and retinal structural changes. A single dose of 0.5% Timolol or a single dose of 2 mg/mL Edonentan was topically administered to three non-human primates that have laser-induced glaucoma in their right eyes (OD) with 1-week wash-out in a randomized order.

[3] = Pharmacokinetics after topical administration in the rabbit; assay type: in vivo, Dutch-belted rabbits; conditions: single topical eye drop 100 μg, 10 minutes, 2 and 7 hours
Procedure: To determine the pharmacokinetic properties of Edonentan following topical administration in the rabbit, rabbits (Dutch-belted rabbits) received an eye drop in both eyes (100 μg of Edonentan, 35 μL dose volume/eye). After the administrations, the animals (N=2) were euthanized at different time points (e.g. 10 minutes (immediately after pot-dose), 2 and 7 hours) and tissues were collected for analysis. List of tissues collected include plasma, retina, vitreous humor and bulbar conjunctiva.

[4] = system: laser-induced glaucoma eye; test: Laser-induced glaucoma non-human primate, optic nerve head blood flow (LSFG) after IVT administration; assay type: in vivo, rhesus macaque, Macaca Mulatta; conditions: IVT 50 μL of 0.02, 0.2 or 2.0 mg/mL, over 6 hours, glaucomatous eye
Procedure: Non-human primates (rhesus macaque, Macaca Mulatta) were obtained for this study. One eye of each animal underwent induction of elevation of intraocular pressure (TOP) by repeated laser photocoagulation of the trabecular meshwork. Imaging sessions were repeated to monitor the optic nerve head (ONH) and retinal structural changes. A study was performed to compare an experimental glaucoma eye and a contralateral healthy eye (control) of three non-human primates in global average mean blur rate (MBR) and MBR change from baseline over time as an index of ONH blood flow in a laser-induced glaucoma model. More specifically, a vehicle control, 0.02 mg/mL of Edonentan, 0.2 mg/mL of Edonentan, or 2.0 mg/mL of Edonentan was intravitreally administered (50 μL) to a glaucomatous eye of each of three non-human primates (rhesus macaque, Macaca Mulatta). These graphs show the ONH blood flow in the three non-human primates after IVT administration of a vehicle alone (FIG. 7A, FIG. 7E, and FIG. 7I), 0.02 mg/mL of Edonentan (FIG. 7B, FIG. 7F, and FIG. 7J), 0.2 mg/mL of Edonentan (FIG. 7C, FIG. 7G, and FIG. 7K) or 2.0 mg/mL of Edonentan (FIG. 7D, FIG. 7H, and FIG. 7L).

ET-1 induced vasospasm = test: Rabbit ET-1 induced vasospasm model, retinal blood flow (OCT-A, FA); assay type: in vivo, rabbit (Oryctolagus cuniculus)
Procedure: Adult, male Dutch-belted rabbits were given a 20 μl intravitreal injection (IVT) of 0.5 μg of ET-1 followed by a 20 μl intravitreal injection of 10-100 μg Edonentan given 30 min after the ET-1 administration. IOP, optical coherence tomography—angiography (OCT-A), and fluorescein angiograms (FA) were performed at pre-specified time points (30, 45, 60, and 75 min) following ET-1 and Edonentan administration to assess retinal blood flow changes induced by ET-1+/−Edonentan. […] To evaluate the effect of retinal blood flow following intravitreally administered endothelin-1 (ET-1) followed by the antagonist Edonentan in the rabbit, rabbits (Oryctolagus cuniculus) were given a 20 μL intravitreal injection of ET-1 in the left eye followed by a 20 μL intravitreal injection of Edonentan at 2 (or 3) different doses (e.g. 0.1 μg, 0.5 μg, 2.5 μg). The pulse ox, tonometry, optical coherence tomography angiography (OCTA), fluorescein angiography (FA) and retinal leakage scoring were performed for evaluation.

Permeability (PAMPA) = assay type: in vitro ADME
Excerpt: as §1

Stability in solid state = assay type: physicochemical; conditions: 2 h@125° C.
Excerpt: as §1

[5] = Pharmacokinetics after topical or oral administration in the rat; assay type: in vivo, Brown Norway rats
Procedure: After the administrations, the animals (N=2) were euthanized at different time points (e.g. 4 and 8 hours) and tissues were collected for analysis. List of tissues collected include plasma, retina/retinal pigment epithelium (RPE)/choroid, vitreous humor and aqueous humor.

Structure (SMILES): Cc1onc(NS(=O)(=O)c2ccccc2-c2ccc(-c3ncco3)cc2CN(C)C(=O)CC(C)(C)C)c1C [Edonentan, N-[[2′-[[(4,5-dimethyl-3-isoxazolyl)amino]sulfonyl]-4-(2-oxazolyl)[1,1′-biphenyl]-2-yl]methyl]-N,3,3-trimethylbutanamide]
- Functional potency for ETA and ETB receptors (rating) (ETA receptor): High potency
- Specificity ETA vs ETB (rating) (ETA receptor): High specificity
- Solubility in Ethyl Acetate (rating) ([1]; ethyl acetate): Good
- solubility ([1]; ethyl acetate, organic solvent or mixture, read-out: Solubility in Ethyl Acetate): > 8900 µg/mL and > 16800 µM
- solubility ([1]; pH 2, simulated gastric fluid, read-out: Solubility at pH 2): < 0.54 µg/mL and < 1 µM
- Solubility at pH 7 ([1]; pH 7, amorphous form): 607 μM
- IOP reduction from pre-dose to post-dose ([2]; Non-human Primate 1, contralateral healthy eye, 120 minutes): about 10%
- IOP reduction from pre-dose to post-dose ([2]; Non-human Primate 1, experimental glaucoma eye, 120 minutes): about 60%
- IOP reduction from pre-dose to post-dose ([2]; Non-human Primate 2, contralateral healthy eye, 15 minutes): about 20%
- IOP reduction from pre-dose to post-dose ([2]; Non-human Primate 2, contralateral healthy eye, 120 minutes): about 0%
- IOP reduction from pre-dose to post-dose ([2]; Non-human Primate 2, experimental glaucoma eye, 15 minutes): about 50%
- IOP reduction from pre-dose to post-dose ([2]; Non-human Primate 2, experimental glaucoma eye, 120 minutes): about 30%
- IOP reduction from pre-dose to post-dose ([2]; Non-human Primate 3, contralateral healthy eye, 15 minutes): about 10%
- IOP reduction from pre-dose to post-dose ([2]; Non-human Primate 3, contralateral healthy eye, 120 minutes): about 40%
- IOP reduction from pre-dose to post-dose ([2]; Non-human Primate 3, experimental glaucoma eye, 15 minutes): about 40%
- IOP reduction from pre-dose to post-dose ([2]; Non-human Primate 3, experimental glaucoma eye, 120 minutes): about 40%
- Detection in plasma, retina, vitreous humor and bulbar conjunctiva [3]: detected in all tissues examined at all timepoints
- ONH blood flow (mean blur rate, LSFG) [4]: improvement of ONH blood flow in a dose-dependent manner
- Fluorescein dye velocity as an index of retinal blood flow, dose dependence (ET-1 induced vasospasm; 0.1 μg ET-1 and 0.1, 0.5, 2.5 or 10 μg Edonentan IVT (FIG. 8A, 8B)): dose-response
- Effect of ET-1 (retinal vasoconstriction), fluorescein angiography (ET-1 induced vasospasm; 0.5 μg ET-1 IVT, then 10 μg Edonentan IVT, within 90 min (60 min after Edonentan)): reversed
- Fluorescein dye velocity as an index of retinal blood flow (ET-1 induced vasospasm; healthy rabbits, 0.5 μg ET-1 and 10 μg antagonist IVT (FIG. 3)): improved to control levels
- Permeability (rating) (Permeability (PAMPA)): Mid-High
- Stability in Solid State (verdict) (Stability in solid state): Stable
- Detection in aqueous humor after oral administration ([5]; oral, 17 mg/kg): detectable
- Detection in retina/RPE/choroid and vitreous humor after oral administration ([5]; oral, 1.7 and 17 mg/kg): detectable
- Detection in retina/RPE/choroid, aqueous humor and vitreous humor ([5]; topical eye drop 100 μg, 4 and 8 hours): detected
